The record followed here is patent US20230391845A1, “GLP-1, GIP AND GLUCAGON RECEPTOR TRIPLE AGONISTS” (priority 2020, published 2023).

Structures are written as SMILES. *1 amine or outer side, *2 acyl side, *3 side chain or, on linkers, in order; H or OH if unused. Where a SMILES comes first, the peptide text is derived from it. Side-chain parts run from the residue outwards. [ ]: non-standard residue; d: D form. The star is where a group is joined. C20 diacid = O=C(O)CCCCCCCCCCCCCCCCCCC(=O)*; C18 diacid = O=C(O)CCCCCCCCCCCCCCCCC(=O)*; γGlu = O=C(O)[C@H](CCC(=O)[*:2])N[*:1]; εLys = N[C@@H](CCCCN[*:1])C(=O)[*:2]; AEEA = NCCOCCOCC(=O)O; Aib = CC(C)(N)C(=O)O

T2 sequence (P43220 24-463): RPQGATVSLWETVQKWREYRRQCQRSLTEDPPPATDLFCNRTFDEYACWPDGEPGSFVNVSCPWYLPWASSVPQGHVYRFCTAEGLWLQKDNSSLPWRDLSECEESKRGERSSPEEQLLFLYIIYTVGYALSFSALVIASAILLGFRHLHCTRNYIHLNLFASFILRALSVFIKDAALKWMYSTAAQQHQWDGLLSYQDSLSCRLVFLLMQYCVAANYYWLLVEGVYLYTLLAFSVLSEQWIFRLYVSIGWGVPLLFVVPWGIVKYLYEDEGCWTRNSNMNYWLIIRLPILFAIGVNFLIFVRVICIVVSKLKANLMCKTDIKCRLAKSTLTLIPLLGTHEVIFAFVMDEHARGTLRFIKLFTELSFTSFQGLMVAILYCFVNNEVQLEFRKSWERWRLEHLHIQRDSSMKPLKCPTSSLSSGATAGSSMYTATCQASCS

One assay has as its target T1, human GIP receptor (Homo sapiens, UniProt P48546).
T1 construct: expressed in transfected cells; host or cells: BHK cells (parent line BHKTS13) containing CRE luciferase
T1 sequence (P48546 22-466): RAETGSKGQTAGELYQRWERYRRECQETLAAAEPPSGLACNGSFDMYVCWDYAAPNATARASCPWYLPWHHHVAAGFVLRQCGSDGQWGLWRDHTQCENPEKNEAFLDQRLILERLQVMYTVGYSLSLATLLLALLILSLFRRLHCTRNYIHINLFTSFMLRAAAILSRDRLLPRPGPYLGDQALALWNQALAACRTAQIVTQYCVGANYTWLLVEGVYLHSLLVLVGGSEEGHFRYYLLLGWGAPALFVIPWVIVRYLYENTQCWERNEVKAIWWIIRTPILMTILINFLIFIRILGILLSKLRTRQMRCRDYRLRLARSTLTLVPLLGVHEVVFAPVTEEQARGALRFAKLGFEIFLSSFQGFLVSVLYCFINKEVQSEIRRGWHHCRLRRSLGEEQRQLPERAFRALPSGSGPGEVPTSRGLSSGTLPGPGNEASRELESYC
As to the kind of experiment: In vitro functional potency (CRE luciferase; whole cells), human GIPR. The format is cell-based. Conditions: BHK CRE luc2P hGIPR whole cells; Table 2; read-out: hGIPR CRE Luc EC50.
Protocol: The purpose of this example is to test the functional activity, or potency, of the compounds in vitro at the human and mouse GLP-1, GIP, and Gcg receptors. The in vitro functional potency is the measure of target receptor activation in a whole cell assay.
In vitro functional potency was determined by measuring the response of the target receptor in a reporter gene assay in individual cell lines. The assay was performed in stably transfected BHK cell lines that expresses one of the following G-protein coupled receptors: human GLP-1 receptor, human GIP receptor, human Gcg receptor, mouse GLP-1 receptor, mouse GIP receptor, or mouse Gcg receptor; and where each cell line contains the DNA for the cAMP response element (CRE) coupled to a promoter and the gene for firefly luciferase (CRE luciferase). When the respective receptor is activated, it results in the production of cAMP, which in turn results in expression of the luciferase protein. When assay incubation is completed, luciferase substrate (luciferin) is added resulting in the enzymatic conversion of luciferin to oxyluciferin and producing bioluminescence. The luminescence is measured as the readout for the assay.
The cells lines used in these assays were BHK cells with BHKTS13 as a parent cell line. The cell lines were derived from a clone containing the CRE luciferase element and were established by further transfection with the respective receptor to obtain the relevant cell line.
The cells were cultured at 37° C. with 5% CO2 in Cell Culture Medium. They were aliquoted and stored in liquid nitrogen. The cells were kept in continuous culture and were seeded out the day before each assay.
GLP-1R and GcgR Cell Culture Medium consisted of DMEM medium with 10% FBS, 500 µg/mL G418, and 300 µg/mL hygromycin. GIPR Cell Culture Medium consisted of DMEM medium with 10% FBS, 400 µg/mL G418, and 300 µg/mL hygromycin. Assay Buffer consisted of DMEM w/o phenol red, 10 mM Hepes, 1× Glutamax, 1% ovalbumin, and 0.1% Pluronic F-68.
• 1) Cells were plated at 5000 cells/well and incubated overnight in the assay plate. • 2) Cells were washed once in DPBS. • 3) Stocks of the test compounds and reference compounds in concentrations ranging from 100-300 pM were diluted 1:150 in Assay Buffer.
The data from the microtiter plate reader was first regressed in an Excel in order to calculate the x-axis, log scale concentrations based on the individual test compound's stock concentration and the dilutions of the assay. […] The software performs a non-linear regression (log(agonist) vs response). A minimum of two replicates was measured for each sample. The reported values are averages of the replicates.
On to `CC[C@H](C)[C@H](NC(=O)[C@H](CO)NC(=O)[C@H](Cc1ccc(O)cc1)NC(=O)[C@H](CC(=O)O)NC(=O)[C@H](CO)NC(=O)[C@@H](NC(=O)[C@H](Cc1ccccc1)NC(=O)[C@@H](NC(=O)CNC(=O)[C@H](Cc1c[nH]cn1)NC(=O)C(C)(C)NC(=O)[C@@H](N)Cc1c[nH]cn1)[C@@H](C)O)[C@@H](C)O)C(=O)N[C@@H](CC(C)C)C(=O)N[C@@H](CC(C)C)C(=O)N[C@@H](CCC(=O)O)C(=O)N[C@@H](CCCCNC(=O)COCCOCCNC(=O)COCCOCCNC(=O)CC[C@H](NC(=O)CCCCCCCCCCCCCCCCCCC(=O)O)C(=O)O)C(=O)N[C@@H](CCC(N)=O)C(=O)N[C@@H](C)C(=O)N[C@@H](C)C(=O)NC(C)(C)C(=O)N[C@@H](CCC(=O)O)C(=O)N[C@@H](Cc1ccccc1)C(=O)N[C@H](C(=O)N[C@@H](CCC(N)=O)C(=O)N[C@@H](Cc1c[nH]c2ccccc12)C(=O)N[C@@H](CC(C)C)C(=O)N[C@@H](CC(C)C)C(=O)N[C@@H](CCC(=O)O)C(=O)NCC(=O)NCC(=O)N1CCC[C@H]1C(=O)N[C@@H](CO)C(=O)N[C@@H](CO)C(=O)NCC(=O)N[C@@H](C)C(=O)N1CCC[C@H]1C(=O)N1CCC[C@H]1C(=O)N1CCC[C@H]1C(=O)N[C@@H](CO)C(N)=O)C(C)C` [Compound No. 45] (H-H[Aib]HGTFTSDYSILLEK([AEEA-AEEA-γGlu-C20 diacid])QAA[Aib]EFVQWLLEGGPSSGAPPPS-NH2; N-terminus assumed), for which the EC50 (usually the concentration needed to bring the measured effect to its halfway point) was found to be 1.9 pM.

As for `CC[C@H](C)[C@H](NC(=O)[C@H](CO)NC(=O)[C@H](Cc1ccc(O)cc1)NC(=O)[C@H](CC(=O)O)NC(=O)[C@H](CO)NC(=O)[C@@H](NC(=O)[C@H](Cc1ccccc1)NC(=O)[C@@H](NC(=O)CNC(=O)[C@H](Cc1c[nH]cn1)NC(=O)C(C)(C)NC(=O)[C@@H](N)Cc1ccc(O)cc1)[C@@H](C)O)[C@@H](C)O)C(=O)N[C@@H](Cc1ccc(O)cc1)C(=O)N[C@@H](CC(C)C)C(=O)N[C@@H](CCC(=O)O)C(=O)N[C@@H](CCCCNC(=O)[C@@H](N)CCCCNC(=O)[C@@H](N)CCCCNC(=O)CC[C@H](NC(=O)CCCCCCCCCCCCCCCCCCC(=O)O)C(=O)O)C(=O)N[C@@H](CCC(N)=O)C(=O)N[C@@H](C)C(=O)N[C@@H](C)C(=O)NC(C)(C)C(=O)N[C@@H](CCC(=O)O)C(=O)N[C@@H](Cc1ccccc1)C(=O)N[C@H](C(=O)N[C@@H](CCC(N)=O)C(=O)N[C@@H](Cc1c[nH]c2ccccc12)C(=O)N[C@@H](CC(C)C)C(=O)N[C@@H](CC(C)C)C(=O)N[C@@H](CCC(=O)O)C(=O)NCC(=O)NCC(=O)N1CCC[C@H]1C(=O)N[C@@H](CO)C(=O)N[C@@H](CO)C(=O)NCC(=O)N[C@@H](C)C(=O)N1CCC[C@H]1C(=O)N1CCC[C@H]1C(=O)N1CCC[C@H]1C(=O)N[C@@H](CO)C(N)=O)C(C)C` [Compound No. 18] (H-Y[Aib]HGTFTSDYSIYLEK([εLys-εLys-γGlu-C20 diacid])QAA[Aib]EFVQWLLEGGPSSGAPPPS-NH2), the 50% effective concentration (EC50) was 7.1 pM.

As to `CC[C@H](C)[C@H](NC(=O)[C@H](CO)NC(=O)[C@H](Cc1ccc(O)cc1)NC(=O)[C@H](CC(=O)O)NC(=O)[C@H](CO)NC(=O)[C@@H](NC(=O)[C@H](Cc1ccccc1)NC(=O)[C@@H](NC(=O)CNC(=O)[C@H](Cc1c[nH]cn1)NC(=O)C(C)(C)NC(=O)[C@@H](N)Cc1c[nH]cn1)[C@@H](C)O)[C@@H](C)O)C(=O)N[C@@H](CC(C)C)C(=O)N[C@@H](CC(C)C)C(=O)N[C@@H](CCC(=O)O)C(=O)N[C@@H](CCCCNC(=O)[C@@H](N)CCCCNC(=O)[C@@H](N)CCCCNC(=O)CC[C@H](NC(=O)CCCCCCCCCCCCCCCCCCC(=O)O)C(=O)O)C(=O)N[C@@H](CCC(N)=O)C(=O)N[C@@H](C)C(=O)N[C@@H](C)C(=O)N[C@@H](CCC(N)=O)C(=O)N[C@@H](CCC(=O)O)C(=O)N[C@@H](Cc1ccccc1)C(=O)N[C@H](C(=O)N[C@@H](CCC(N)=O)C(=O)N[C@@H](Cc1c[nH]c2ccccc12)C(=O)N[C@@H](CC(C)C)C(=O)N[C@@H](CC(C)C)C(=O)N[C@@H](CCC(=O)O)C(=O)NCC(=O)NCC(=O)N1CCC[C@H]1C(=O)N[C@@H](CO)C(=O)N[C@@H](CO)C(=O)NCC(=O)N[C@@H](C)C(=O)N1CCC[C@H]1C(=O)N1CCC[C@H]1C(=O)N1CCC[C@H]1C(=O)N[C@@H](CO)C(=O)O)C(C)C` [Compound No. 53] (H-H[Aib]HGTFTSDYSILLEK([εLys-εLys-γGlu-C20 diacid])QAAQEFVQWLLEGGPSSGAPPPS-OH), the concentration giving a half-maximal response (EC50) is 4.8 pM.

In the case of `CC[C@H](C)[C@H](NC(=O)[C@H](CO)NC(=O)[C@H](Cc1ccc(O)cc1)NC(=O)[C@H](CC(=O)O)NC(=O)[C@H](CO)NC(=O)[C@@H](NC(=O)[C@H](Cc1ccccc1)NC(=O)[C@@H](NC(=O)CNC(=O)[C@H](Cc1c[nH]cn1)NC(=O)C(C)(C)NC(=O)[C@@H](N)Cc1c[nH]cn1)[C@@H](C)O)[C@@H](C)O)C(=O)N[C@@H](CC(C)C)C(=O)N[C@@H](CC(C)C)C(=O)N[C@@H](CCC(=O)O)C(=O)N[C@@H](CCCCNC(=O)[C@@H](N)CCCCNC(=O)[C@@H](N)CCCCNC(=O)CC[C@H](NC(=O)CCCCCCCCCCCCCCCCCCC(=O)O)C(=O)O)C(=O)N[C@@H](CCC(N)=O)C(=O)N[C@@H](C)C(=O)N[C@@H](C)C(=O)N[C@@H](CCC(=O)O)C(=O)N[C@@H](CCC(=O)O)C(=O)N[C@@H](Cc1ccccc1)C(=O)N[C@H](C(=O)N[C@@H](CCC(N)=O)C(=O)N[C@@H](Cc1c[nH]c2ccccc12)C(=O)N[C@@H](CC(C)C)C(=O)N[C@@H](CC(C)C)C(=O)N[C@@H](CCC(=O)O)C(=O)NCC(=O)NCC(=O)N1CCC[C@H]1C(=O)N[C@@H](CO)C(=O)N[C@@H](CO)C(=O)NCC(=O)N[C@@H](C)C(=O)N1CCC[C@H]1C(=O)N1CCC[C@H]1C(=O)N1CCC[C@H]1C(=O)N[C@@H](CO)C(=O)O)C(C)C` [Compound No. 50] (H-H[Aib]HGTFTSDYSILLEK([εLys-εLys-γGlu-C20 diacid])QAAEEFVQWLLEGGPSSGAPPPS-OH), the EC50 is 1.9 pM.

On to `CC[C@H](C)[C@H](NC(=O)[C@H](CO)NC(=O)[C@H](Cc1ccc(O)cc1)NC(=O)[C@H](CC(=O)O)NC(=O)[C@H](CO)NC(=O)[C@@H](NC(=O)[C@H](Cc1ccccc1)NC(=O)[C@@H](NC(=O)CNC(=O)[C@H](Cc1c[nH]cn1)NC(=O)C(C)(C)NC(=O)[C@@H](N)Cc1c[nH]cn1)[C@@H](C)O)[C@@H](C)O)C(=O)N[C@@H](CC(C)C)C(=O)N[C@@H](CC(C)C)C(=O)N[C@@H](CCC(=O)O)C(=O)N[C@@H](CCCCNC(=O)[C@@H](N)CCCCNC(=O)[C@@H](N)CCCCNC(=O)CC[C@H](NC(=O)CCCCCCCCCCCCCCCCC(=O)O)C(=O)O)C(=O)N[C@@H](CCC(N)=O)C(=O)N[C@@H](C)C(=O)N[C@@H](C)C(=O)N[C@@H](CCC(=O)O)C(=O)N[C@@H](CCC(=O)O)C(=O)N[C@@H](Cc1ccccc1)C(=O)N[C@H](C(=O)N[C@@H](CCC(N)=O)C(=O)N[C@@H](Cc1c[nH]c2ccccc12)C(=O)N[C@@H](CC(C)C)C(=O)N[C@@H](CC(C)C)C(=O)N[C@@H](CCC(=O)O)C(=O)NCC(=O)NCC(=O)N1CCC[C@H]1C(=O)N[C@@H](CO)C(=O)N[C@@H](CO)C(=O)NCC(=O)N[C@@H](C)C(=O)N1CCC[C@H]1C(=O)N1CCC[C@H]1C(=O)N1CCC[C@H]1C(=O)N[C@@H](CO)C(=O)O)C(C)C` [Compound No. 51] (H-H[Aib]HGTFTSDYSILLEK([εLys-εLys-γGlu-C18 diacid])QAAEEFVQWLLEGGPSSGAPPPS-OH), for which the EC50 is 1.8 pM.

Another assay concerns the target T2, human GLP-1 receptor (Homo sapiens, UniProt P43220).
T2 construct: expressed in transfected cells; host or cells: BHK cells (parent line BHKTS13) containing CRE luciferase
The assay can be described thus: In vitro functional potency (CRE luciferase; whole cells), human GLP-1R. Conditions: BHK CRE luc2P hGLP-1R whole cells; Table 2; read-out: hGLP-1R CRE Luc EC50. The format is cell-based.
`CC[C@H](C)[C@H](NC(=O)[C@H](CO)NC(=O)[C@H](Cc1ccc(O)cc1)NC(=O)[C@H](CC(=O)O)NC(=O)[C@H](CO)NC(=O)[C@@H](NC(=O)[C@H](Cc1ccccc1)NC(=O)[C@@H](NC(=O)CNC(=O)[C@H](Cc1c[nH]cn1)NC(=O)C(C)(C)NC(=O)[C@@H](N)Cc1c[nH]cn1)[C@@H](C)O)[C@@H](C)O)C(=O)N[C@@H](CC(C)C)C(=O)N[C@@H](CC(C)C)C(=O)N[C@@H](CCC(=O)O)C(=O)N[C@@H](CCCCNC(=O)COCCOCCNC(=O)COCCOCCNC(=O)CC[C@H](NC(=O)CCCCCCCCCCCCCCCCCCC(=O)O)C(=O)O)C(=O)N[C@@H](CCC(N)=O)C(=O)N[C@@H](C)C(=O)N[C@@H](C)C(=O)NC(C)(C)C(=O)N[C@@H](CCC(=O)O)C(=O)N[C@@H](Cc1ccccc1)C(=O)N[C@H](C(=O)N[C@@H](CCC(N)=O)C(=O)N[C@@H](Cc1c[nH]c2ccccc12)C(=O)N[C@@H](CC(C)C)C(=O)N[C@@H](CC(C)C)C(=O)N[C@@H](CCC(=O)O)C(=O)NCC(=O)NCC(=O)N1CCC[C@H]1C(=O)N[C@@H](CO)C(=O)N[C@@H](CO)C(=O)NCC(=O)N[C@@H](C)C(=O)N1CCC[C@H]1C(=O)N1CCC[C@H]1C(=O)N1CCC[C@H]1C(=O)N[C@@H](CO)C(N)=O)C(C)C` [Compound No. 45] (H-H[Aib]HGTFTSDYSILLEK([AEEA-AEEA-γGlu-C20 diacid])QAA[Aib]EFVQWLLEGGPSSGAPPPS-NH2; N-terminus assumed): the EC50 stood at 2.4 pM.
